{
  "source": "patent US5194371A",
  "about": "“Production of pradimicin antibiotics” (Bristol-Myers Squibb Company, priority 1991, dated 1993)",
  "key": {"Candida albicans A9540": {"tested_on": "Candida albicans A9540", "assay": "In vivo efficacy against C. albicans A9540 systemic infection in mice", "parameters": "species or system male ICR mice infected with Candida albicans", "conditions": "A9540, iv, 504 h, i.v., single dose immediately after challenge, survival on day 21, read-out: PD50 (median protective dose)", "description": "The in vivo efficacy of BMY-28960 was evaluated against Candida albicans A9540 systemic infection in male ICR mice (20-24 g body weight). Five mice are used for each dose level. Mice were challenged intravenously with 10 times the median lethal dose of the pathogen suspended in saline and BMY-28960 was intravenously administered once immediately after the challenge. The median protective dose (PD50) was calculated from survival rates recorded on day 21."}, "[1]": {"assay": "Tolerability following intravenous administration in ICR mice", "format": "in vivo", "conditions": "i.v., up to 600 mg/kg"}, "strain AB 1236": {"tested_on": "strain AB 1236", "assay": "Antibiotic susceptibility of strain AB 1236 (antibiotic disks)", "format": "cell-based, Actinomadura sp. AB 1236", "conditions": "37° C., 4 days", "description": "Antibiotic susceptibility of strain AB 1236 was tested using antibiotic disks (Tridisk, Eiken Chemical Co., Ltd.). The disks were placed onto the surface of yeast-glucose-malt agar (yeast extract 0.1%, glucose 1%, malt extract 0.1%, CaCl2.2H2 O 0.05% and agar 1.5%) which had been seeded by strain AB 1236 (4% inoculum), and the plates were then incubated at 37° C. for 4 days. Strain AB 1236 was resistant to 50 μg of fosfomycin and 300 U of polymixin B, and susceptible to 20 U of ampicillin, 1 μg of clavulanic acid, 2 μg of ticarcillin, 10 μg of cephalexin, 30 μg of tetracycline, 10 μg of chloramphenicol, 0.5 μg of erythromycin, 2 μg of josamycin, 2 μg of lincomycin, 5 μg of kanamycin, 5 μg of gentamicin, 5 μg of tobramycin, 2 μg of nalidixic acid, 2 μg of norfloxacin and 50 U of colistin."}},
  "data": [
    {"compound": "C[C@@H]1[C@H](O)[C@@H](C)/C=C/C=C/C=C/C=C/C=C/C=C/C=C/[C@H](O[C@@H]2O[C@H](C)[C@@H](O)[C@H](N)[C@@H]2O)C[C@@H]2O[C@](O)(C[C@@H](O)C[C@@H](O)[C@H](O)CC[C@@H](O)C[C@@H](O)CC(=O)O[C@H]1C)C[C@H](O)[C@H]2C(=O)O", "note": "[Amphotericin B]", "values": [
      {"measurement": "ED50", "setting": "Candida albicans A9540", "result": 0.31, "unit": "mg/kg"}
    ]},
    {"compound": "COc1cc(O)c2c(c1)C(=O)c1c(cc3c(c1O)-c1c(cc(C)c(C(=O)N[C@H](CO)C(=O)O)c1O)[C@H](O[C@@H]1O[C@H](C)[C@H](O)[C@H](O[C@@H]4OC[C@@H](O)[C@H](O)[C@H]4O)[C@H]1O)[C@H]3O)C2=O", "note": "[BMY-28960, 4'-deamino-4'-axial-hydroxypradimicin FA-2]", "values": [
      {"measurement": "ED50", "setting": "Candida albicans A9540", "result": 6.7, "unit": "mg/kg"},
      {"measurement": "Lethality and apparent side effects", "setting": "[1]", "result": "neither lethality nor apparent side effects were noted"},
      {"measurement": "Solubility in solvent", "setting": "Solubility in solvent; Dimethyl sulfoxide, N,N-dimethylformamide and alkaline water", "result": "Soluble"},
      {"measurement": "Solubility in solvent", "setting": "Solubility in solvent; Ethanol, methanol and acetone", "result": "Slightly soluble"},
      {"measurement": "Solubility in solvent", "setting": "Solubility in solvent; Ethyl acetate, benzene, chloroform, acidic water, etc.", "result": "Isoluble"}
    ]},
    {"compound": "OC(Cn1cncn1)(Cn1cncn1)c1ccc(F)cc1F", "note": "[Fluconazole]", "values": [
      {"measurement": "ED50", "setting": "Candida albicans A9540", "result": "> 50", "unit": "mg/kg"}
    ]},
    {"compound": "CN[C@@H]1[C@H](O[C@@H]2OC[C@@H](O)[C@H](O)[C@H]2O)[C@@H](O)[C@H](O[C@H]2c3cc(C)c(C(=O)N[C@H](C)C(=O)O)c(O)c3-c3c(cc4c(c3O)C(=O)c3cc(OC)cc(O)c3C4=O)[C@@H]2O)O[C@@H]1C", "note": "[Pradimicin A]", "values": [
      {"measurement": "ED50", "setting": "Candida albicans A9540", "result": 10, "unit": "mg/kg"}
    ]},
    {"compound": "CC1(C)S[C@@H]2[C@H](NC(=O)[C@H](N)c3ccccc3)C(=O)N2[C@H]1C(=O)O", "note": "[ampicillin]", "values": [
      {"measurement": "Antibiotic susceptibility of strain AB 1236", "setting": "strain AB 1236; disk 20 U", "result": "susceptible"}
    ]},
    {"compound": "CC1=C(C(=O)O)N2C(=O)[C@@H](NC(=O)[C@H](N)c3ccccc3)[C@H]2SC1", "note": "[cephalexin]", "values": [
      {"measurement": "Antibiotic susceptibility of strain AB 1236", "setting": "strain AB 1236; disk 10 μg", "result": "susceptible"}
    ]},
    {"compound": "O=C(N[C@H](CO)[C@H](O)c1ccc([N+](=O)[O-])cc1)C(Cl)Cl", "note": "[chloramphenicol]", "values": [
      {"measurement": "Antibiotic susceptibility of strain AB 1236", "setting": "strain AB 1236; disk 10 μg", "result": "susceptible"}
    ]},
    {"compound": "O=C(O)[C@H]1/C(=C/CO)O[C@@H]2CC(=O)N21", "note": "[clavulanic acid]", "values": [
      {"measurement": "Antibiotic susceptibility of strain AB 1236", "setting": "strain AB 1236; disk 1 μg", "result": "susceptible"}
    ]},
    {"compound": "CC[C@H]1OC(=O)[C@H](C)[C@@H](O[C@H]2C[C@@](C)(OC)[C@@H](O)[C@H](C)O2)[C@H](C)[C@@H](O[C@@H]2O[C@H](C)C[C@H](N(C)C)[C@H]2O)[C@](C)(O)C[C@@H](C)C(=O)[C@H](C)[C@@H](O)[C@]1(C)O", "note": "[erythromycin]", "values": [
      {"measurement": "Antibiotic susceptibility of strain AB 1236", "setting": "strain AB 1236; disk 0.5 μg", "result": "susceptible"}
    ]},
    {"compound": "C[C@@H]1O[C@@H]1P(=O)(O)O", "note": "[fosfomycin]", "values": [
      {"measurement": "Antibiotic susceptibility of strain AB 1236", "setting": "strain AB 1236; disk 50 μg", "result": "resistant"}
    ]},
    {"compound": "NC[C@H]1O[C@H](O[C@H]2[C@H](O)[C@@H](O[C@H]3O[C@H](CO)[C@@H](O)[C@H](N)[C@H]3O)[C@H](N)C[C@@H]2N)[C@H](O)[C@@H](O)[C@@H]1O", "note": "[kanamycin]", "values": [
      {"measurement": "Antibiotic susceptibility of strain AB 1236", "setting": "strain AB 1236; disk 5 μg", "result": "susceptible"}
    ]},
    {"compound": "CCC[C@@H]1C[C@@H](C(=O)N[C@@H]([C@H]2O[C@H](SC)[C@H](O)[C@@H](O)[C@H]2O)[C@@H](C)O)N(C)C1", "note": "[lincomycin]", "values": [
      {"measurement": "Antibiotic susceptibility of strain AB 1236", "setting": "strain AB 1236; disk 2 μg", "result": "susceptible"}
    ]},
    {"compound": "CCn1cc(C(=O)O)c(=O)c2ccc(C)nc21", "note": "[nalidixic acid]", "values": [
      {"measurement": "Antibiotic susceptibility of strain AB 1236", "setting": "strain AB 1236; disk 2 μg", "result": "susceptible"}
    ]},
    {"compound": "CCn1cc(C(=O)O)c(=O)c2cc(F)c(N3CCNCC3)cc21", "note": "[norfloxacin]", "values": [
      {"measurement": "Antibiotic susceptibility of strain AB 1236", "setting": "strain AB 1236; disk 2 μg", "result": "susceptible"}
    ]},
    {"compound": "CN(C)C1C(=O)C(C(N)=O)=C(O)C2(O)C(=O)C3=C(O)c4c(O)cccc4C(C)(O)C3CC12", "note": "(stereo not shown) [tetracycline]", "values": [
      {"measurement": "Antibiotic susceptibility of strain AB 1236", "setting": "strain AB 1236; disk 30 μg", "result": "susceptible"}
    ]},
    {"compound": "CC1(C)S[C@@H]2[C@H](NC(=O)[C@H](C(=O)O)c3ccsc3)C(=O)N2[C@H]1C(=O)O", "note": "[ticarcillin]", "values": [
      {"measurement": "Antibiotic susceptibility of strain AB 1236", "setting": "strain AB 1236; disk 2 μg", "result": "susceptible"}
    ]},
    {"compound": "NC[C@H]1O[C@H](O[C@H]2[C@H](O)[C@@H](O[C@H]3O[C@H](CO)[C@@H](O)[C@H](N)[C@H]3O)[C@H](N)C[C@@H]2N)[C@H](N)C[C@@H]1O", "note": "[tobramycin]", "values": [
      {"measurement": "Antibiotic susceptibility of strain AB 1236", "setting": "strain AB 1236; disk 5 μg", "result": "susceptible"}
    ]},
    {"compound": "colistin", "values": [
      {"measurement": "Antibiotic susceptibility of strain AB 1236", "setting": "strain AB 1236; disk 50 U", "result": "susceptible"}
    ]},
    {"compound": "gentamicin", "values": [
      {"measurement": "Antibiotic susceptibility of strain AB 1236", "setting": "strain AB 1236; disk 5 μg", "result": "susceptible"}
    ]},
    {"compound": "josamycin", "values": [
      {"measurement": "Antibiotic susceptibility of strain AB 1236", "setting": "strain AB 1236; disk 2 μg", "result": "susceptible"}
    ]},
    {"compound": "polymixin B", "values": [
      {"measurement": "Antibiotic susceptibility of strain AB 1236", "setting": "strain AB 1236; disk 300 U", "result": "resistant"}
    ]}
  ]
}
